Reference: US5998624A, “Haloisoquinoline carboxamide” (Emory University, priority 1998, dated 1999)
“And” between values parts separate entries of the source, which are not always exact repeats. Equal entries are not always repeated.

Molecular target: T1, PK receptors (Rattus norvegicus, UniProt P16257)
T1 construct: Tissue preparations of rat kidney homogenate; from tissue; host or cells: rat kidney homogenate
Assay: Inhibition of [^3 H]PK11195 binding to PK receptors in rat kidney homogenate
Conditions: [^3 H]PK11195, 60 min, room temperature, Average, N-2
Experimental: The binding affinities of representative compounds of the invention are given in Table I. In this study, the compounds having the generic structure defined, supra, were tested for their ability to inhibit the binding of a known PK receptor antagonist [^3 H]PK11195, to PK receptors in a rat kidney homogenate preparation.
Tissue preparations of rat kidney homogenate were incubated with [^3 H]PK11195 and competitors (i.e. 9a-d & 23a-c, at 12 concentrations ranging from 10^-11 to 10^-6 […]) in an assay buffer. The assay mixture was incubated for 60 min. at room temperature with stirring and the resulting samples were rapidly filtered through Whatman GF/B glass-fiber filters pretreated with 0.2% protamine base and washed with cold buffer, pH 7.4. The filters were counted in a liquid scintillation counter at an efficiency of 65% for tritium saturation binding, Scatchard and competition experiments were analyzed with the iterative nonlinear least squares curve-fitting program. For comparison, for PK11195, X is Cl, Y and Z are H, and R is 2-butyl. Compounds having the lower Ki values were the most As effective inhibitors, and therefore bound the PK-receptor at the lowest concentrations. Compounds of the invention are also useful for radiation therapy, based on their specific affinity for glial tumor cells.
Compound `CN(CCCF)C(=O)c1cc2ccccc2c(-c2ccccc2I)n1` [H H CH2 CH2 CH2 F, 1-(2-iodophenyl)-N-methyl-N-(3-fluoropropyl)-3-isoquinolinecarboxamide] has a Ki of 0.26 nM. With `CN(CCCF)C(=O)c1cc2ccccc2c(-c2ccc(I)cc2)n1` [H H I CH2 CH2 CH2 F, 1-(4-iodophenyl)-N-methyl-N-(3-fluoropropyl)-3-isoquinolinecarboxamide] the Ki was 63.1 nM. With `CCC(C)N(C)C(=O)c1cc2ccccc2c(-c2ccc(I)cc2)n1` (stereo not shown) [H H I CH3 CHCH2 CH3] the Ki was 3.1 nM and 1.6 nM. `CN(CCCF)C(=O)c1cc2ccccc2c(-c2cccc(I)c2)n1` [H I H CH2 CH2 CH2 F, 1-(3-iodophenyl)-N-methyl-N-(3-fluoropropyl)-3-isoquinolinecarboxamide] gave a Ki of 1.3 nM. For `CCC(C)N(C)C(=O)c1cc2ccccc2c(-c2cccc(I)c2)n1` (stereo not shown) [H I H CH3 CHCH2 CH3], the Ki was 2.8 nM and 1.53 nM. Compound `CN(CCF)C(=O)c1cc2ccccc2c(-c2ccccc2I)n1` [I H H CH2 CH2 F, 1-(2-iodophenyl)-N-methyl-N-(2-fluoroethyl)-3-isoquinolinecarboxamide] has a Ki of 421 nM.

Test system: PK receptor sites
Assay: not given
Conditions: background statement; cited from earlier work
In the case of `CCC(C)N(C)C(=O)c1cc2ccccc2c(-c2ccccc2Cl)n1` (stereo not shown) [PK11195, 1-(2-chlorophenyl)-N-methyl-N-(alkyl)-3-isoquinoline carboxamide], the “binding to PK receptor sites” value is listed as “binds strongly”.
